Test results as given in patent publication US10378034B2, “Use of a N-acetylneuraminate lyase derived from the bacterium Aliivibrio salmonicida in the production of neuraminic acid and derivatives thereof” (Universitetet i Tromsø-Norges Arktiske Universitet, priority 2014, dated 2019).

How the values were obtained:
AsNAL [1] = test: Production of Neu5,7Ac2/Neu5,8Ac2/Neu5,9Ac2 and legionaminic acid by AsNAL (DMB-HPLC-MS); type: biochemical, Aliivibrio salmonicida; details: for 468.1613@3.56 Area (Neu5,7Ac2) / 468.1613@4.05 Area (Neu5,8Ac2) / 468.1613@4.4 Area (Neu5,9Ac2) / RT 3.29 (Area), legionaminic acid: 15 mM substrate, 15 mM pyruvate, 28 μg AsNAL, HEPES pH 8.0
Method: 15 mM of 4-O-acetyl-2-N-acetylmannosamine (4-OAc-ManNAc) or 2,4-diacetamino-2,4,6-trideoxymannose, 15 mM of pyruvate, 28 μg of enzyme (AsNAL), 124 mM HEPES buffer, pH 8.0 and dH2O were mixed in a tube to a total volume of 200 μl. Aliquots were sampled after 1.0, 1.5 and 4.0 h for production of di-acetylated Neus. For production of Legionaminic acid aliquots were sampled after 1.0 and 3.0 h. Reactions were terminated by addition of 2 μl concentrated H2SO4. Samples were passed over Amicon Ultra spin-columns with a 10000 molecular weight cut-off (Millipore) to remove high molecular weight compounds. The low molecular weight fractions were then used in DMB-HPLC coupled to mass spectrometric analyses. Derivatization of samples with DMB were performed according to protocol given by the supplier (Sialic Acid Fluorescence Labeling Kit, Takara Inc.). Reactions were carried out for 2.5 hours at 50° C. in the dark. A reference panel with a mixture of the Sias; Neu5Gc, Neu5Ac, Neu5,7Ac2, Neu5Gc9Ac, Neu5,9Ac2 and Neu5, (7/8)9Ac3 (ProZyme Inc.) were also subjected to derivatization with DMB. DMB-labeled sialic acids were separated by HPLC using Accela HPLC (Thermo Scientific) on a LTQ Orbitrap XL Fourier Transform Mass Spectrometer (FTMS) with an Electrospray ion source (Thermo Scientific) using a positive ion profile mode fullscan (+pESI). The column used was a Hypersil Gold 50×2.1 mm, 1.9 μm reversed-phase C18 column (Thermo scientific).). Elution was achieved using water with 0.1% formic acid (A) and acetonitrile with 0.1% formic acid (B) at a flow rate of 400 μl/min.
The analytical conditions were set to 300° C. for capillary temperature, 4.5 kV spray voltage, m/z 350-550 scan range and 35% collision energy. The MS/MS was targeted on the masses m/z 426.15, m/z 468.16 and m/z 451.18 using Ion trap MS (ITMS)+cESI with full MS2 in scan range m/z 125-480, corresponding to the DMB derivates DMB-Neu5Ac, DMB-di-acetylated Neu and DMB-Leg.

AsNAL [2] = test: Cleavage of Neu5Ac, Neu5Gc and KDN by AsNAL (TBA assay); type: biochemical, Aliivibrio salmonicida; details: 5 mM substrate, 6.6 μg AsNAL, HEPES pH 8.0, 1 h room temperature
Method: The cleavage reaction of AsNAL contained 6.6 μg of AsNAL, 5 mM Neu5Gc or KDN and 124 mM HEPES buffer pH 8.0. For blank (H2O) and positive control the same components of the reactions were used, but the amount of enzyme was replaced by assay buffer. All reactions were filled up to a total volume of 50 μL with dH2O. The assay was performed in triplicate. After 1 h incubation at room temperature, the enzyme reaction was stopped by adding 2 μL concentrated H2SO4. The thiobarbituric acid (TBA) assay procedure was followed to determine the amount cleaved.

[3] = tested on: CC(=O)N[C@H]1[C@H]([C@H](O)[C@H](O)CO)OC(O)(C(=O)O)C[C@@H]1O; test: LDH-coupled continuous assay, enzyme kinetics for the cleavage reaction of Neu5Ac (AsNAL); type: biochemical, Aliivibrio salmonicida; details: other: cleavage reaction, Neu5Ac 1-90 mM, 50 mM Tris-HCl pH 8.5, 37° C.
Method: (§1) Further, the enzyme kinetics for the cleavage reactions were studied using a lactate dehydrogenase (LDH)-coupled continuous assay (Comb and Roseman, 1960; Wang and Lee, 2006). The incubation mixtures contained variable amounts (1, 5, 15, 30, 45, 60, 75 and 90 mM) of Neu5Ac, 50 mM Tris-HCl, pH 8.5, 0.15 mM NADH (Sigma), 4U LDH (Sigma) and 0.315 μg of NAL in final volumes of 200 μl. Components, except the enzyme, were mixed and incubated at 37° C. for 5 min before the reactions were started by adding the specific enzyme. The measurements were done in triplicates. The decrease in absorbance at 340 nm corresponding to the oxidation of NADH by LDH in presence of released pyruvate was measured spectrophotometrically using a Spectramax M2e Microplate reader. Initial velocities were calculated using the SoftMax Pro software (Molecular Devices) and subsequently fitted to the Michaelis-Menten equation using the program GraphPad Prism 5 (GraphPad Software Inc.). The kcat values were calculated using the formula Vmax/[Enzyme]. The relationship between absorbance and substrate concentration was calculated from a standard-curve obtained by measuring the maximum absorbance from various substrate concentrations. The relationship is given by the formula: y=0.0031x+0.0052, where x is the pyruvate concentration. By using this formula, values of Vmax were converted from mOD/min to μM/min. Enzyme concentrations were converted from mg/ml to molar using the calculated molecular mass of 32257.9 g/mol (monomeric protein).
(§2) The AsNAL Michaelis constant (KM) is somewhat higher than the KM obtained for EcNAL. However, the turnover number, kcat, is strikingly higher than for EcNAL.

[4] = target: Aliivibrio salmonicida LFI1238 N-acetylneuraminate lyase (AsNAL), wild type, SEQ ID NO: 1 (Aliivibrio salmonicida, UniProt B6EI04); test: as above; type: biochemical; details: Neu5Ac 1-90 mM, 50 mM Tris-HCl pH 8.5, 37° C.
Method: as §1, §2

[5] = target: T1, E. coli N-acetylneuraminate lyase (EcNAL), commercially available (Sigma) (Escherichia coli, UniProt P0A6L4); test: LDH-coupled continuous assay, enzyme kinetics for the cleavage reaction of Neu5Ac (EcNAL); type: biochemical; details: Neu5Ac 1-90 mM, 50 mM Tris-HCl pH 8.5, 37° C.
T1 sequence (P0A6L4 1-297): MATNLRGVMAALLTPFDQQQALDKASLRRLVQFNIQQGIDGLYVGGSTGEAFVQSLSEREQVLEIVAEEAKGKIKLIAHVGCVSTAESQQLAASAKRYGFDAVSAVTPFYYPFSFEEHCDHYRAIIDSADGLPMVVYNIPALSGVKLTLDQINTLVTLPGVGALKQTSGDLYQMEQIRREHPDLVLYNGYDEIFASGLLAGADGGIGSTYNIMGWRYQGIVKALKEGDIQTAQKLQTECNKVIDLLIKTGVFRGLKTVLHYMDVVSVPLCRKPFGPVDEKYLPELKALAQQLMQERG
Method: as §1, with “The relationship is given by the formula: y=0.0031x+0.0052, where x is the pyruvate concentration. By using this formula, values of Vmax were converted from mOD/min to μM/min.” left out, “protein). […]” for “protein).”

[6] = Integrated reaction: Neu5Ac production from GlcNAc and pyruvate at alkaline pH (TBA assay); type: biochemical
Method: For ManNAc reactions, the buffer used was HEPES, pH 8.0. […] Experiments were performed in triplicate. For ManNAc experiments, aliquots were sampled after 0.5, 1.0, 1.5, 2.5 and 4.0 h. For GlcNAc experiments, aliquots were sampled after 12, 24, 36, 48 and 72 h. Reactions were terminated by addition of 2 μl concentrated H2SO4. The time needed for N-acetylneuraminic acid (Neu5Ac) production to get started under these conditions was known to take longer time based on initial test experiments. The thiobarbituric acid (TBA) assay procedure was followed to determine the amount of Neu5Ac produced. The activity was corrected for a blank value. The blank contained all the reaction components except for enzyme.
Initially, also glycine buffer was tested at pH 10.5 and pH 11.0 for the reactions with GlcNAc. GlcNAc will chemically epimerize to ManNAc at pH values above 9.0, which the enzyme will use as substrate for the production of Neu5Ac. The epimerization is pH dependent and will increase with increasing pH. Production of Neu5Ac was higher in CAPS buffer compared to glycine buffer, so this was chosen for further experiments.

CC(=O)N[C@@H]1C(O)O[C@H](CO)[C@@H](OC(C)=O)[C@@H]1O (stereo partly shown) [4OAc-ManNAc, 4-O-acetyl-2-N-acetylmannosamine]
468.1613@3.56 Area (Neu5,7Ac2) (AsNAL [1]; 1 hour): 3258981
468.1613@4.05 Area (Neu5,8Ac2) (AsNAL [1]; 1 hour): 4611697
468.1613@4.4 Area (Neu5,9Ac2) (AsNAL [1]; 1 hour): 20834893
468.1613@3.56 Area (Neu5,7Ac2) (AsNAL [1]; 1.5 hours): 4048804
468.1613@4.05 Area (Neu5,8Ac2) (AsNAL [1]; 1.5 hours): 5467510
468.1613@4.4 Area (Neu5,9Ac2) (AsNAL [1]; 1.5 hours): 23706892
468.1613@3.56 Area (Neu5,7Ac2) (AsNAL [1]; 4 hours): 4484920
468.1613@4.05 Area (Neu5,8Ac2) (AsNAL [1]; 4 hours): 6019425
468.1613@4.4 Area (Neu5,9Ac2) (AsNAL [1]; 4 hours): 26500427
production of Neu5,9Ac2, Neu5,7Ac2 and Neu5,8Ac2 relative to ManNAc as a substrate (AsNAL [1]; same conditions, pH 8.0, asNAL): 30-40%

CC(=O)N[C@@H]([C@H](O)[C@@H](C=O)NC(C)=O)[C@@H](C)O [2,4-diacetamino-2,4,6-trideoxymannose]
RT 3.29 (Area), legionaminic acid (AsNAL [1]; 1 h): 902252
RT 3.29 (Area), legionaminic acid (AsNAL [1]; 3 h): 1663378

O=C(CO)N[C@H]1[C@H]([C@H](O)[C@H](O)CO)OC(O)(C(=O)O)C[C@@H]1O (stereo partly shown) [Neu5Gc, N-glycolylneuraminic acid]
% cleaved (AsNAL [2]): 73.9%
Cleaved (OD) (AsNAL [2]): 4.018 ± 0.076
OD sample-blank (measures uncleaved substrate) (AsNAL [2]): 1.422 ± 0.076

O=C(O)C(=O)C[C@H](O)[C@@H](O)[C@@H](O)[C@H](O)[C@H](O)CO [KDN, 2-keto-3-deoxy-D-glycero-D-galacto-nononic acid]
% cleaved (AsNAL [2]): 50.0%
Cleaved (OD) (AsNAL [2]): 2.658 ± 0.130
OD sample-blank (measures uncleaved substrate) (AsNAL [2]): 2.662 ± 0.130

Aliivibrio salmonicida LFI1238 N-acetylneuraminate lyase (AsNAL), wild type, SEQ ID NO: 1 (Aliivibrio salmonicida LFI1238)
Km [3]: 53.88 ± 6.55 mM
kcat [3]: 19.1 s⁻¹
kcat/Km [3]: 354 M⁻¹ s⁻¹

CC(=O)N[C@H]1[C@H]([C@H](O)[C@H](O)CO)OC(O)(C(=O)O)C[C@@H]1O (stereo partly shown) [Neu5Ac, N-acetylneuraminic acid]
Vmax [4]: 315.5 ± 18.5
% cleaved (AsNAL [2]): 82.6%
Cleaved (OD) (AsNAL [2]): 4.984 ± 0.016
OD sample-blank (measures uncleaved substrate) (AsNAL [2]): 1.048 ± 0.016
Vmax [5]: 208.9 ± 16.7

B1: EcNAL: commercially available N-acetylneuraminate lyase from E. coli (Sigma) (protein, UniProt P0A6L4 2-297, looked up)
N-acetylneuraminate lyase: ATNLRGVMAALLTPFDQQQALDKASLRRLVQFNIQQGIDGLYVGGSTGEAFVQSLSEREQVLEIVAEEAKGKIKLIAHVGCVSTAESQQLAASAKRYGFDAVSAVTPFYYPFSFEEHCDHYRAIIDSADGLPMVVYNIPALSGVKLTLDQINTLVTLPGVGALKQTSGDLYQMEQIRREHPDLVLYNGYDEIFASGLLAGADGGIGSTYNIMGWRYQGIVKALKEGDIQTAQKLQTECNKVIDLLIKTGVFRGLKTVLHYMDVVSVPLCRKPFGPVDEKYLPELKALAQQLMQERG
production of Neu5Ac (in words) ([6]; pyruvate and GlcNAc 4:1, CAPS pH 11.0): low
production of Neu5Ac (in words) ([6]; pyruvate and GlcNAc, CAPS pH 11.5): no production was observed
